In brackets after ≈: the same amount, converted by molar mass. Several values for one entry are separate records, joined by “and”; a condition that tells them apart may be missing. Equal values may be shown once. Read-outs that look alike come from different tables or passages of the source.
Experiments:
[1] = tested on: Mycobacterium smegmatis CCM 4622 (ATCC 607); experiment: Mycobacterium smegmatis screening, microdilution broth panel method with resazurin; type: cell-based; details: Middlebrook 7H9 broth, 48 h incubation; for MIC: Mycolicibacterium smegmatis, 48 h, read-out: Minimum Inhibitory Concentrations M. smegmatis
[2] = Experimental lipophilicity logk by RP-HPLC; details: methanol 70% / water 30%, C18
Description: These values were compared with logk, an experimentally measured lipophilicity parameter derived from retention times acquired by RP-HPLC.
Experimental lipophilicity parameter logk values were determined using HPLC method. […] The separation process was handled by Agilent ChemStation, version B.04.02 extended with spectral module (Agilent Technologies Inc.). A mixture of methanol (HPLC grade, 70%) and water (HPLC-Milli-Q Grade, 30%) was used as mobile phase. The total flow rate of the column was set to 1.0 mL/min, injection 20 μL, column temperature 30 °C. 210 nm as detection wavelength and 270 nm as monitor wavelength were chosen. A methanolic solution of KI was used for the determination of dead time (TD). Retention times (TR) of synthesized compounds were measured in minutes. Capacity factors k were calculated according to formula k = (TR − TD)/TD, where TR is the retention time of the solute and TD denotes the dead time obtained via an unretained analyte (KI). Logk, which was calculated from the capacity factor k, is used as the lipophilicity index.

[3] = tested on: Mycobacterium tuberculosis H37Rv; experiment: Antimycobacterial screening, microdilution broth panel method with resazurin (Alamar blue); type: cell-based; details: for MIC: read-out: Minimum Inhibitory Concentrations M. tbc H37Rv
[4] = tested on: eight common bacterial strains; experiment: Antibacterial screening, microdilution broth panel method; type: cell-based; details: all tested bacterial strains, pH 7.0; read-out: Minimum Inhibitory Concentrations Bacteria
[5] = tested on: M. tbc H37Rv; details: cited from earlier work
[6] = tested on: Staphylococcus aureus CCM 4516/08; experiment: Antibacterial screening, microdilution broth panel method; type: cell-based
[7] = in vitro; details: human, IC50 (cytotoxicity), HepG2, 24 h incubation
[8] = tested on: M. kansasii My 235/80; experiment: Antimycobacterial screening, microdilution broth panel method with resazurin (Alamar blue); type: cell-based; details: Mycobacterium kansasii, MY235/80; pH 5.6, 5–7 days incubation
[9] = tested on: HepG2 cell line; details: read-out: IC50 (cytotoxicity); HepG2, 24 h incubation
[10] = tested on: Enterococcus faecalis J 14365/08; experiment: Antibacterial screening, microdilution broth panel method; type: cell-based; details: J14365/08; Enterococcus faecalis J 14365/08, pH 7.0; read-out: Minimum Inhibitory Concentrations Bacteria, EF
[11] = Mycobacterium tuberculosis, H37RV, 336 h, pH 5.6, Sula's broth pH 5.6, 14 days incubation
[12] = Mycobacterium tuberculosis, H37RV, 336 h, pH 5.6, Sula's broth pH 5.6, 14 days incubation, n.a. = not active

## O=C(O)c1cn(C2CC2)c2cc(N3CCNCC3)c(F)cc2c1=O [CPX, ciprofloxacin, reference compound]
[1]
  Minimum Inhibitory Concentrations M. smegmatis: 0.10 to 0.20 µg/mL
  MIC: 0.1 µg/mL (≈ 0.302 µM)

## NC(=O)c1nccnc1NCc1ccccc1 [Compound 1, 3-(Benzylamino)pyrazine-2-carboxamide]
[2]
  Logk: 0.215
[3]; [11]
  MIC: ≥ 100 µg/mL
[1]
  MIC: ≥ 500 µg/mL
[4]
  MIC: > 500 µM

## N#Cc1cnc(C#N)c(NCc2ccccc2)n1 [Compound 1-B]
[5]; series A and B
  MIC against M. tbc H37Rv: 12.5 µg/mL (≈ 53.1 µM)

## Cc1nc(C#N)c(C#N)nc1NCc1ccccc1 [Compound 1-C]
[5]; series C
  MIC against M. tbc H37Rv: 25 µg/mL and 100 µM

## NC(=O)c1nccnc1NCc1cccc(Cl)c1 [Compound 2, 3-[(3-Chlorobenzyl)amino]pyrazine-2-carboxamide]
[2]
  Logk: 0.373
[3]; [11]
  MIC: > 100 µg/mL
[1]
  MIC: ≥ 500 µg/mL
[4]
  MIC: > 500 µM

## NC(=O)c1nccnc1NCc1ccc(Cl)c(Cl)c1 [Compound 3, 3-[(3,4-Dichlorobenzyl)amino]pyrazine-2-carboxamide]
[2]
  Logk: 0.470
[3]; [11]
  MIC: > 100 µg/mL
[1]
  MIC: ≥ 500 µg/mL
[4]
  MIC: > 500 µM

## NC(=O)c1nccnc1NCc1cccc(C(F)(F)F)c1 [Compound 4, 3-[(3-Trifluoromethylbenzyl)amino]pyrazine-2-carboxamide]
[6]; Staphylococcus aureus CCM 4516/08, pH 7.0
  Minimum Inhibitory Concentrations Bacteria, SA: 31.25 SA ^a µM
[6]; Staphylococcus aureus, CCM4516, pH 7, Staphylococcus aureus CCM 4516/08, pH 7.0, read-out: Minimum Inhibitory Concentrations Bacteria, SA
  MIC: 31.2 µM (≈ 9.26 µg/mL)
[2]
  Logk: 0.403
[7]
  IC50: 76.5 µM
[8]
  MIC: 25 µg/mL and 84 µM
[1]
  MIC: 250 µg/mL (≈ 844 µM)

## N#Cc1cnc(C(N)=O)c(NCc2cccc(C(F)(F)F)c2)n1 [Compound 4-A]
[5]; series A and B
  MIC against M. tbc H37Rv: 25 µg/mL and 78 µM

## Cc1nc(C#N)c(C#N)nc1NCc1cccc(C(F)(F)F)c1 [Compound 4-C]
[5]; series C
  MIC against M. tbc H37Rv: 12.5 µg/mL and 39 µM

## NC(=O)c1nccnc1NCc1ccc(Cl)cc1 [Compound 5, 3-[(4-Chlorobenzyl)amino]pyrazine-2-carboxamide]
[2]
  Logk: 0.373
[3]; [11]
  MIC: > 100 µg/mL
[1]
  MIC: 250 µg/mL (≈ 952 µM)

## Cc1ccccc1CNc1nccnc1C(N)=O [Compound 6, 3-[(2-Methylbenzyl)amino]pyrazine-2-carboxamide]
[2]
  Logk: 0.320
[3]; [11]
  MIC: > 100 µg/mL
[1]
  MIC: ≥ 500 µg/mL
[4]
  MIC: > 500 µM

## COc1ccc(CNc2nccnc2C(N)=O)cc1 [Compound 7, 3-[(4-Methoxybenzyl)amino]pyrazine-2-carboxamide]
[2]
  Logk: 0.194
[3]; [11]
  MIC: > 100 µg/mL
[1]
  MIC: ≥ 500 µg/mL
[4]
  MIC: > 500 µM

## Cc1ccc(CNc2nccnc2C(N)=O)cc1 [Compound 8, 3-[(4-Methylbenzyl)amino]pyrazine-2-carboxamide]
[2]
  Logk: 0.441
[7]
  IC50: ≥ 250 µM
[3]; [12]
  MIC: 6 to 42 µM
[3]; [11]
  MIC: 1.56 to 12.5 µg/mL
[3]; Sula's broth pH 5.6, 14 days incubation
  Minimum Inhibitory Concentrations M. tbc H37Rv: 1.56 µg/mL
[3]; Sula's broth pH 5.6, 14 days incubation, n.a. = not active
  MIC: 6 µM
[9]
  IC50: > 250 µM
[1]
  MIC: ≥ 500 µg/mL
[4]
  MIC: > 500 µM

## Cc1ccc(CNc2nc(C#N)cnc2C(N)=O)cc1 [Compound 8-A]
[5]; series A and B
  MIC against M. tbc H37Rv: 12.5 µg/mL and 47 µM

## Cc1ccc(CNc2nc(C#N)cnc2C#N)cc1 [Compound 8-B]
[5]; series A and B
  MIC against M. tbc H37Rv: 6.25 µg/mL and 25 µM

## Cc1ccc(CNc2nc(C#N)c(C#N)nc2C)cc1 [Compound 8-C]
[5]; series C
  MIC against M. tbc H37Rv: 25 µg/mL and 95 µM

## NC(=O)c1nccnc1NCc1ccc(N)cc1 [Compound 9, 3-[(4-Aminobenzyl)amino]pyrazine-2-carboxamide]
[2]
  Logk: −0.313
[7]
  IC50: > 750 µM
[1]
  MIC: 250 µg/mL (≈ 1030 µM)
[4]
  MIC: > 500 µM

## N#Cc1cnc(C(N)=O)c(NCc2ccc(N)cc2)n1 [Compound 9-A]
[5]; series A and B
  MIC against M. tbc H37Rv: 12.5 µg/mL and 47 µM

## N#Cc1cnc(C#N)c(NCc2ccc(N)cc2)n1 [Compound 9-B]
[5]; series A and B
  MIC against M. tbc H37Rv: 25 µg/mL and 100 µM

## Cc1nc(C#N)c(C#N)nc1NCc1ccc(N)cc1 [Compound 9-C]
[5]; series C
  MIC against M. tbc H37Rv: 25 µg/mL and 95 µM

## NC(=O)c1nccnc1NCc1ccccc1Cl [Compound 10, 3-[(2-Chlorobenzyl)amino]pyrazine-2-carboxamide]
[2]
  Logk: 0.441
[3]; [11]
  MIC: > 100 µg/mL
[1]
  MIC: ≥ 500 µg/mL
[4]
  MIC: > 500 µM

## NC(=O)c1nccnc1NCc1ccccc1F [Compound 11, 3-[(2-Fluorobenzyl)amino]pyrazine-2-carboxamide]
[2]
  Logk: 0.248
[10]
  MIC: 125 µM (≈ 30.8 µg/mL)
[3]; [11]
  MIC: > 100 µg/mL
[1]
  MIC: ≥ 500 µg/mL

## NC(=O)c1nccnc1NCc1ccc(C(F)(F)F)cc1 [Compound 12, 3-[(4-Trifluoromethylbenzyl)amino]pyrazine-2-carboxamide]
[2]
  Logk: 0.502
[10]
  MIC: 125 µM (≈ 37 µg/mL)
[7]
  IC50: 57.3 µM
[1]
  MIC: ≥ 500 µg/mL

## NC(=O)c1nccnc1NCc1ccccc1C(F)(F)F [Compound 13, 3-[(2-Trifluoromethylbenzyl)amino]pyrazine-2-carboxamide]
[2]
  Logk: 0.495
[10]
  MIC: 125 µM (≈ 37 µg/mL)
[3]; [11]
  MIC: > 100 µg/mL
[1]
  MIC: ≥ 500 µg/mL

## COc1ccc(CNc2nccnc2C(N)=O)c(OC)c1 [Compound 14, 3-[(2,4-Dimethoxybenzyl)amino]pyrazine-2-carboxamide]
[2]
  Logk: 0.274
[10]
  MIC: 62.5 µM (≈ 18 µg/mL)
[3]; [11]
  MIC: > 100 µg/mL
[1]
  MIC: ≥ 500 µg/mL

## NC(=O)c1nccnc1NCc1cccc([N+](=O)[O-])c1 [Compound 15, 3-[(3-Nitrobenzyl)amino]pyrazine-2-carboxamide]
[2]
  Logk: 0.101
[3]; [11]
  MIC: > 100 µg/mL
[1]
  MIC: ≥ 500 µg/mL
[4]
  MIC: > 500 µM

## NNC(=O)c1ccncc1 [INH, isoniazid, reference compound]
[3]; [12]
  MIC: 3 µM
[3]; [11]
  MIC: 0.39 µg/mL
[8]
  MIC: 1.56 µg/mL to 12.5 µg/mL and 11 µM to 91 µM
[1]
  Minimum Inhibitory Concentrations M. smegmatis: 7.81 to 15.63 µg/mL
[1]; listed as isoniazid
  Minimum Inhibitory Concentrations M. smegmatis: 15.63 µg/mL

## NC(=O)c1cnccn1 [PZA, pyrazinamide]
[3]; [12]
  MIC: 102 µM
[3]; [11]
  MIC: 12.5 µg/mL
[1]
  MIC: ≥ 500 µg/mL

## CO[C@H]1/C=C/O[C@@]2(C)Oc3c(C)c(O)c4c(O)c(c(/C=N/N5CCN(C)CC5)c(O)c4c3C2=O)NC(=O)/C(C)=C\C=C\[C@H](C)[C@H](O)[C@@H](C)[C@@H](O)[C@@H](C)[C@H](OC(C)=O)[C@@H]1C [RFM, rifampicin, reference compound]
[1]
  Minimum Inhibitory Concentrations M. smegmatis: 0.78 to 1.56 µg/mL
  MIC: 0.39 µg/mL (≈ 0.474 µM)

— article PMC6155776, “Synthesis of Novel Pyrazinamide Derivatives Based on 3-Chloropyrazine-2-carboxamide and Their Antimicrobial Evaluation” (Molecules : A Journal of Synthetic Chemistry and Natural …, 2017)
